Laboratory results reported in article PMC9211397, “High-Throughput Screening Platform To Identify Inhibitors of Protein Synthesis with Potential for the Treatment of Malaria” (Antimicrobial Agents and Chemotherapy, 2022).

How the values were obtained:
[1] = molecular target: P. falciparum translation (P. falciparum lysate); assay: P. falciparum in vitro translation (PfIVT) assay, lysate-based, luciferase reporter; format: biochemical, Plasmodium falciparum; details: established inhibitors of protein translation; read-out: IC50 values, µM PfIVT (Table S1)
Text: (§1) Our P. falciparum in vitro translation (PfIVT) assay is built upon previously established assays ([14], [17]) and is summarized in Fig. 1A. In this assay, successful reconstitution of Plasmodium protein translation is reported via synthesis of a luciferase reporter. For PfIVT, two independent untranslated regions (UTRs), previously shown to promote strong levels of translation ([17]), were introduced upstream and downstream of the luciferase. The 5′ UTR from P. falciparum histidine-rich protein 3 (PfHrp3) ([18]) was introduced upstream of the reporter gene, and the 3′ UTR from P. falciparum histidine-rich protein 2 (PfHrp2) gene ([19]) was introduced downstream. For the reporter construct to support our complementary human IVT assay (HsIVT), the 5′ UTR was replaced with an internal ribosome entry site (IRES) from encephalomyocarditis virus (EMCV) ([20]) and the 3′ UTR was replaced with a poly(A) tail ([21]). […] Finally, a 30-bp poly(A) tail, present within the vector and downstream of the luciferase gene, was inserted to enhance mRNA stability ([21]).
(§2) Translationally active P. falciparum or human embryonic kidney (HEK) 293F lysates were supplemented with accessory, helper, amino acid, and energy regeneration solutions (see Materials and Methods for details). In vitro translation reactions were initiated by the addition of purified mRNA to each reaction well. Using this basic assay format, a number of parameters were assessed and optimized, namely, assay temperature, time, mRNA concentration, and reaction volume (summarized in Fig. S2 in the supplemental material). In addition, we compared the luminescence signal of the CBG firefly luciferase with CBG99, derived from the click beetle […] ([18]).
3D7 parasites were synchronized following two rounds of treatment with D-sorbitol (5%), as previously described ([40]). The hematocrit was reduced from 5% (for standard culture) to 1.5 to 2% and cultures were transferred into HYPERflasks (Corning). Fresh medium was added once or twice daily. […] Harvested red blood cells (infected) were lysed by incubation in 0.1% (wt/vol) saponin on ice for 10 min with gentle agitation. Free parasites were harvested by centrifugation (2,800 × g, 10 min, 4°C) and washed 3 times in wash buffer (WB; 100 mM potassium acetate, 2.5 mM magnesium acetate, 45 mM HEPES [pH 7.4], 250 mM sucrose, 2 mM dithiothreitol, and 15 μM leupeptin) to remove lysed red blood cell debris. The resulting pellet was resuspended in 1 volume of WB supplemented with cOmplete EDTA-free protease inhibitor cocktail (Roche; 1 tablet/20 mL) and human RNase A inhibitor (Sigma; 5 U/mL). Parasite lysis was achieved by nitrogen cavitation using a prechilled 45-mL Parr cell disruption vessel (1,500 lb/in^2, 60 min, 4°C). To clarify the lysate, it was centrifuged (10,000 × g, 15 min, 4°C), and the supernatant was collected, transferred into fresh tubes, and centrifuged (30,000 × g, 15 min, 4°C). As a quality assurance step for each lysate, the RNA content of the resulting supernatant was determined using a NanoDrop spectrophotometer (Shimadzu). Supernatants with RNA levels of >250 ng/μL were aliquoted (100 μL), flash frozen in liquid nitrogen, and stored at −80°C.

[2] = system: asexual-blood-stage (ABS) P. falciparum; assay: SYBR green-based P. falciparum asexual growth inhibition assay; format: cell-based; details: Plasmodium falciparum; established inhibitors of protein translation; read-out: EC50 values, µM PfABS (Table S1)
Description: The Plasmodium falciparum reference strain 3D7 used throughout this study was cultured as previously described ([39]). Briefly, cultures incubated at 37°C in a humidified atmosphere of 1% O2 and 3% CO2 in balance with N2 were maintained in RPMI 1640 media supplemented with 5% A^+ human red blood cells (provided by the Scottish National Blood Transfusion Service), 25 mM HEPES, 2 mM L-glutamine, 0.5% AlbuMAX II (Gibco), 12 mM sodium bicarbonate, 0.2 mM hypoxanthine, and 20 mg/L gentamicin (pH 7.3).
Our SYBR green asexual-growth assay was based on a previous report ([45]). In brief, 96-well black clear-bottom plates (Corning) were preprinted with a compound and normalized with DMSO to 0.5% of a total assay volume of 100 μL. Highly synchronized ring-stage parasites and blood were added to a 2% final parasitemia and 1% hematocrit. The compounds were incubated with parasites for 72 h prior to freezing at −20°C (to aid cell lysis). The plate was thawed on ice and lysis buffer (20 mM Tris pH 7.5, 5 mM EDTA, 0.008% [w/v] saponin, […]) containing SYBR green I (Thermo Fisher Scientific) at a final concentration of 0.02% (v/v) was added. The 96-well plate was equilibrated to room temperature for 1 h before fluorescence was determined on a TECAN Infinite Pro 200 microplate reader using green fluorescent protein (GFP) filters (excitation, 485 nm; emission, 535 nm). Data were fitted to a two-parameter equation using GraFit version 7.0 (Erithacus Software), and EC50 values were calculated. An excess of the standard inhibitor mefloquine (10 μM) was used to define 0% parasite growth.

[3] = system: human translation (HEK 293F lysate); assay: Human in vitro translation (HsIVT) assay, HEK 293F lysate, luciferase reporter; format: biochemical; details: for effect on translation in the HsIVT assay (Fig. S3A): 10 µM, three technical replicates; for IC50: weighted mean ± SD from at least two biological replicates, read-out: IC50 in the HsIVT assay (Fig. S3B)
Text: as §1, §2
FreeStyle human embryonic kidney (HEK) 293F cells (Thermo Fisher Scientific) were grown in 500-mL polycarbonate Erlenmeyer vented flasks (Corning) containing FreeStyle 293 expression medium (Life Technologies) upon reaching a density of approximately 2 × 10^6. Cells were then centrifuged at 1,000 × g for 10 min at 4°C, the medium was discarded, and the resulting pellet was washed once in buffer II containing 20 U of human placental RNase inhibitor (Sigma-Aldrich) and cOmplete EDTA-free inhibitor cocktail (Roche) before being centrifuged at 2,800 × g for 10 min. Clarified HEK cell lysate was obtained in the same way as described for P. falciparum lysate.
PfIVT and HsIVT reactions (5 μL final volume) were performed in 384-well plates (Corning) containing 50% lysate from cells (either P. falciparum or HEK 293F), 10% amino acid solution (final concentration of 400 μM for each amino acid in 60 mM KOH; biotechrabbit), 10% energy recovery solution (final assay concentrations of 40 mM HEPES [pH 7.4], 1.5 mM ATP, 0.15 mM GTP, […] creatine phosphate, and 40 U/mL creatine phosphokinase), 10% helper solution (final assay concentrations of 200 μM cystine, 2% polyethylene glycol 3000 [PEG 3000], 1 mM spermidine, 0.5 mM folinic acid, and 15 μM leupeptin), 10% supplemental salt solution (22.5 mM HEPES [pH 7.4], 50 mM potassium acetate, 1 mM magnesium acetate, 1 mM DTT, 1 U/mL human placental RNase inhibitor, 0.1 mM leupeptin), and 10% cbg99 luciferase mRNA (3,000 ng/mL). A master mix solution containing all components was prepared on ice prior to assays, and 5 μL was dispensed into wells using an automated Integra VIAFLO 16-channel 12.5-μL pipette.

Row | SMILES | IC50 [1] [µM] | EC50 [2] [µM] | effect on translation in the HsIVT assay (Fig. S3A) [3] | inhibition of translation in HsIVT assay (validation) [3] | IC50 [3] [nM]
1 | O=C(NCCN1CCCC1)c1cc(-c2ccc(CN3CCOCC3)cc2)nc2ccc(F)cc12 [DDD107498/M5717, reference compound] | 0.1 | 0.0008 | little or no effect |  | 
2 | CC[C@H]1CN2CCc3cc(OC)c(OC)cc3[C@@H]2C[C@@H]1C[C@H]1NCCc2cc(OC)c(OC)cc21 [Emetine, emetine, reference compound] | 1.8 | 0.03 | ablated activity | successfully inhibit translation | 800 ± 100
3 | O=C(CC1NCCCC1O)Cn1cnc2cc(Br)c(Cl)cc2c1=O (stereo not shown) [Halofuginone, halofuginone, reference compound] | 0.3 | 0.0004 | ablated activity | successfully inhibit translation | 1700 ± 40
